ChEMBL document CHEMBL1158131, “Daryamides A-C, weakly cytotoxic polyketides from a marine-derived actinomycete of the genus Streptomyces strain CNQ-085” (J Nat Prod, 2006)
Converted amounts (≈) assume the structure as drawn. The source made the active and inactive calls. No cut-off for these calls is given here.

What was measured:
[1] = tested on: HCT-116; assay: Cytotoxicity against human HCT116 cells; format: functional, cell-based
[2] = tested on: Candida albicans; assay: Antifungal activity against Candida albicans; format: functional
[3] = tested on: Staphylococcus aureus; assay: Antibacterial activity against methicillin-resistant Staphylococcus aureus; format: functional, organism-based

Compound	IC50 [1] [µg/mL]	MIC [2] [µg/mL]	Activity [3]	Activity [2]
CC(C)C/C=C/C=C/C(=O)NC1=C[C@@](O)(CCC(N)=O)[C@H](O)CC1=O [DARYAMIDE A]	3.15 (≈ 8.99 µM)	62.5 (≈ 178 µM)	inactive	–
CC(C)C/C=C/C=C/C(N)=O	21.7 (≈ 142 µM)	–	inactive	inactive
CC(C)/C=C/C=C/C(=O)NC1=CC(O)(CCC(N)=O)C=CC1=O (configuration not stated) [DARYAMIDE C]	10 (≈ 31.5 µM)	–	inactive	inactive
CC(C)C/C=C/C=C/C(=O)NC1=CC(O)(CCC(N)=O)C=CC1=O (configuration not stated) [DARYAMIDE B]	9.99 (≈ 30.1 µM)	125 (≈ 376 µM)	inactive	–
